Measured values as given in US12533337B2, “Pharmaceutical drug containing heterocyclidene acetamide derivative” (SENJU PHARMACEUTICAL CO., LTD., priority 2019, dated 2026).
Entries after “also recorded” stand apart in the source; their conditions may differ.

What was measured:
Assay type in all cases: in vivo
[1] = system: rat scopolamine-induced dry eye model; experiment: Observation of superficial punctate keratitis (SPK) in a rat scopolamine-induced dry eye model
Protocol: (§1) 1.0 w/v % compound (1) suspension eye drop was administered for an extended period using a rat scopolamine-induced dry eye model prepared by the same method as Test Example 2. The model was treated under a low humidity environment (20% RH or less) only when measuring the number of blinks.
(§2) 5 μL of 1.0 w/v % compound (1) suspension eye drop and vehicle eye drop was administered to the right eye 4 times a day by using a micropipette.
(§3) An effect of improving SPK (SPK score) was evaluated by the same method as Test Example 1 on day 8 of sample administration. The number of blinks of the right eye was measured for 5 minutes under a low humidity environment after 4 hours from the initial administration on day 7 of administration (2 weeks post-surgery) by the same method as Text Example 2.

[2] = system: Vi/Vc zone of the medulla oblongata; experiment: Measurement of c-Fos positive cell count in the Vi/Vc zone of the medulla oblongata, rat scopolamine-induced dry eye model; details: 0.3 w/v % suspension eye drop
Protocol: 5 μL of eye drop was administered to the right eye using a micropipette, 4 times a day with an interval of 2 hours or longer. A vehicle eye drop was administered to the Sham group.
After a rat was allowed to bleed to death by perfusion of saline, Zamboni's Fixative was perfused to extract the medulla oblongata. After sectioning the extracted medulla oblongata, the medulla oblongata was stained by immunohistochemical staining by using an anti-c-Fos antibody (product name: Rabbit Anti-Human c-Fos Polyclonal Antibody, sc-52, Santa Cruz Biotechnology, Inc.).

[3] = system: rat scopolamine-induced dry eye model; experiment: Number of blinks under a low humidity environment in a rat scopolamine-induced dry eye model; details: for number of blinks within 5 minutes / number of blinks within 5 minutes vs vehicle at 0.5 hours: single administration; for number of blinks within 5 minutes: 0.5 hours after
Protocol: Compound (1) was used as a tested substance. In the same manner as Test Example 1, compound (1) was suspended in a buffer to prepare suspension eye drops with a concentration of compound (1) of 0.1 w/v %, 0.3 w/v %, and 1.0 w/v %. A compound (1)-free vehicle eye drop consisting of only a vehicle was also prepared as a control group.
A rat scopolamine-induced dry eye model was prepared by the same method as Test Example 1.
After about 2.5 hours from implanting an osmotic pump, dry air supplied from an air compressor was sent into an experiment chamber (SJ-1500N, Natsume Seisakusho) to create a low humidity environment (20% RH or lower).
5 μL of a vehicle eye drop or 0.1 w/v %, 0.3 w/v %, or 1.0 w/v % compound (1) suspension eye drop was administered once to the right eye using a micropipette, 0.5 hours before measuring the number of blinks.
After 8 days or more from starting raising the rats in a low humidity environment, the rats were taken out from a breeding cage. The animals were placed in a cage comprised of chain link fencing on all sides (behavior measurement environment cage) to facilitate measurement of the number of blinks. After acclimation for 0.5 hours under a normal environment, the behavior measurement environment cage was transferred to an experiment chamber, and the number of blinks of the right eye of rats was measured for 5 minutes under a low humidity environment. A test was conducted in four separate phases using the same animals after a drug withdrawal period of 2 days or more (crossover test).
By using the same evaluation method as Text Example 2, the sustainability of an effect of improving a subjective symptom was examined.
as §1, §2, §3

`O=C(/C=C1\CCOc2cc(C(F)(F)F)ccc21)Nc1cccc2c1C[C@H](O)CC2` [compound (1), (E)-2-(7-trifluoromethylchroman-4-ylidene)-N-((7R)-7-hydroxy-5,6,7,8-tetrahydronaphthalen-1-yl)acetamide] was tested, and the “SPK score compared to a vehicle eye drop” value ([1]; 0.3 w/v % suspension eye drop, after 7 days from administration (15 days post-surgery)) was “significantly reduced”, the “SPK score effect compared to a vehicle eye drop” value ([1]; 0.3 w/v % suspension eye drop, after 14 days from administration (22 days post-surgery)) was “sustained” and the “SPK score compared to a vehicle eye drop” value ([1]; 1.0 w/v % suspension eye drop, 4 times a day, 8 days of repeated administration (Example 4)) was “significantly reduced”. For the same molecule, the “c-Fos positive cell count in the Vi/Vc zone of the medulla oblongata compared to a vehicle eye drop” value ([2]; 14 days of administration) was “reduced”, the “c-Fos positive cell count” value ([2]; SCOP model, 5 μL right eye 4 times a day for 14 days, Vi/Vc zone, 22 days post-surgery) was 8.8 ± 3.8 cells/section and the “number of blinks within 5 minutes” value ([3]; 0.1 w/v % suspension eye drop, low humidity) was “reduced”. The “number of blinks within 5 minutes” value ([3]; 0.3 w/v % suspension eye drop, low humidity) was “significant effect”, the “number of blinks within 5 minutes compared to a vehicle eye drop” value ([3]; 1.0 w/v % suspension eye drop, repeated administration 4 times a day, 4 hours after initial administration on day 7, low humidity (Example 4)) was “reduced” and the “number of blinks within 5 minutes” value ([3]; 1.0 w/v % suspension eye drop, low humidity (Test Example 2)) was “significant effect”. The “number of blinks within 5 minutes vs vehicle at 0.5 hours” value (from here on “number … vs vehicle at 0.5 hours”) ([3]; 1.0 w/v % suspension eye drop, after 0.5 hours (Example 3)) was “significantly reduced; also recorded: reduced significantly”, the “number … vs vehicle at 0.5 hours” value ([3]; 1.0 w/v % suspension eye drop, after 4 hours (Example 3)) was “significantly reduced; also recorded: reduced significantly” and the “number … vs vehicle at 0.5 hours” value ([3]; 1.0 w/v % suspension eye drop, after 8 hours (Example 3)) was “reduced”.
